In ChEMBL document CHEMBL3885861, “Open TG-GATES”:

Species: Rattus norvegicus
Assay: Open TG-GATES - Regimen: Single
Format: toxicity, organism-based, Sprague-Dawley
Set-up: regimen Single, gender Male, age 6 weeks
Details: in vivo, po, 0 mg/kg, route gavage, dose level Control; for APTT / Bas / Eos / Fbg / Hb / Ht / Lym / MCH / MCHC / MCV / Mono / Neu / PT / RBC / Ret / WBC / Plat: tissue Blood; for KIDNEY_L / KIDNEY_R / KIDNEY_TOTAL: tissue Kidney; for LIVER: tissue Liver; for ALP / ALT / AST / BUN / CRE / Ca / DBIL / GLC / IP / K / LDH / Na / PL / RALB / TBIL / TC / TG / TP / gamma-GTP: tissue Plasma

Q: Which TERMINAL_BW (3 h) does the source give for CSc1ccc2c(c1)N(CCC1CCCCN1C)c1ccccc1S2 (configuration not stated) [THIORIDAZINE] here?
A: 216.6 g

Q: What about the APTT (3 h) of the same molecule?
A: 16 s

Q: And the Bas (3 h)?
A: 0%

Q: What about the Eos (3 h) of the same molecule?
A: 0.6%

Q: And the Fbg (3 h)?
A: 206.6 mg/dL

Q: What about the Hb (3 h) of the same molecule?
A: 12.9 g/dL

Q: What about the Ht (3 h) of the same molecule?
A: 38.9%

Q: And the Lym (3 h)?
A: 82.2%

Q: And the MCH (3 h)?
A: 21.8 pg

Q: What about the MCHC (3 h) of the same molecule?
A: 33.2%

Q: And the MCV (3 h)?
A: 65.7 fL

Q: And the Mono (3 h)?
A: 7.4%

Q: And the Neu (3 h)?
A: 10%

Q: And the PT (3 h)?
A: 12.1 s

Q: What about the RBC (3 h) of the same molecule?
A: 592 x10_4/ul

Q: And the Ret (3 h)?
A: 8.6%

Q: What about the WBC (3 h) of the same molecule?
A: 109.6 x10_2/uL

Q: What about the KIDNEY_L (3 h) of the same molecule?
A: 1 g

Q: And the KIDNEY_R (3 h)?
A: 1 g

Q: What about the KIDNEY_TOTAL (3 h) of the same molecule?
A: 2 g

Q: And the LIVER (3 h)?
A: 10.6 g

Q: And the ALP (3 h)?
A: 789.2 IU/L

Q: What about the ALT (3 h) of the same molecule?
A: 37.2 IU/L

Q: What about the AST (3 h) of the same molecule?
A: 71 IU/L

Q: What about the BUN (3 h) of the same molecule?
A: 12.4 mg/dL

Q: What about the CRE (3 h) of the same molecule?
A: 0.5 mg/dL

Q: What about the Ca (3 h) of the same molecule?
A: 11.4 mg/dL

Q: What about the DBIL (3 h) of the same molecule?
A: 0.006 mg/dL

Q: What about the GLC (3 h) of the same molecule?
A: 197.6 mg/dL

Q: What about the IP (3 h) of the same molecule?
A: 10.1 mg/dL

Q: And the K (3 h)?
A: 5 meq/L

Q: And the LDH (3 h)?
A: 94.4 IU/L

Q: And the Na (3 h)?
A: 137.4 meq/L

Q: What about the PL (3 h) of the same molecule?
A: 136.2 mg/dL

Q: What about the RALB (3 h) of the same molecule?
A: 3.8 g/dL

Q: What about the TBIL (3 h) of the same molecule?
A: 0.3 mg/dL

Q: What about the TC (3 h) of the same molecule?
A: 72.2 mg/dL

Q: What about the TG (3 h) of the same molecule?
A: 93.4 mg/dL

Q: What about the TP (3 h) of the same molecule?
A: 5.5 g/dL

Q: What about the gamma-GTP (3 h) of the same molecule?
A: 0.8 IU/L

Q: And the TERMINAL_BW (6 h)?
A: 212.3 g

Q: And the APTT (6 h)?
A: 16.3 s

Q: What about the Bas (6 h) of the same molecule?
A: 0%

Q: What about the Eos (6 h) of the same molecule?
A: 1%

Q: And the Fbg (6 h)?
A: 216.8 mg/dL

Q: And the Hb (6 h)?
A: 13.7 g/dL

Q: And the Ht (6 h)?
A: 40.9%

Q: And the Lym (6 h)?
A: 74%

Q: And the MCH (6 h)?
A: 21.5 pg

Q: What about the MCHC (6 h) of the same molecule?
A: 33.3%

Q: And the MCV (6 h)?
A: 64.4 fL

Q: What about the Mono (6 h) of the same molecule?
A: 8.2%

Q: And the Neu (6 h)?
A: 17.2%

Q: And the PT (6 h)?
A: 12.1 s

Q: And the Plat (6 h)?
A: 98.4 x10_4/uL

Q: What about the RBC (6 h) of the same molecule?
A: 635.6 x10_4/ul

Q: What about the Ret (6 h) of the same molecule?
A: 7.7%

Q: What about the WBC (6 h) of the same molecule?
A: 117.4 x10_2/uL

Q: And the KIDNEY_L (6 h)?
A: 0.9 g

Q: And the KIDNEY_R (6 h)?
A: 1 g

Q: What about the KIDNEY_TOTAL (6 h) of the same molecule?
A: 1.9 g

Q: What about the LIVER (6 h) of the same molecule?
A: 9.5 g

Q: What about the ALP (6 h) of the same molecule?
A: 834 IU/L

Q: And the ALT (6 h)?
A: 28 IU/L

Q: And the AST (6 h)?
A: 60.4 IU/L

Q: What about the BUN (6 h) of the same molecule?
A: 12.4 mg/dL

Q: And the CRE (6 h)?
A: 0.5 mg/dL

Q: What about the Ca (6 h) of the same molecule?
A: 10.9 mg/dL

Q: What about the DBIL (6 h) of the same molecule?
A: 0.016 mg/dL

Q: And the GLC (6 h)?
A: 189 mg/dL

Q: And the IP (6 h)?
A: 10.1 mg/dL

Q: And the K (6 h)?
A: 5 meq/L

Q: What about the LDH (6 h) of the same molecule?
A: 100.4 IU/L

Q: And the Na (6 h)?
A: 137.4 meq/L

Q: What about the PL (6 h) of the same molecule?
A: 147 mg/dL

Q: And the RALB (6 h)?
A: 3.8 g/dL

Q: What about the TBIL (6 h) of the same molecule?
A: 0.4 mg/dL

Q: What about the TC (6 h) of the same molecule?
A: 80.2 mg/dL

Q: What about the TG (6 h) of the same molecule?
A: 84.4 mg/dL

Q: What about the TP (6 h) of the same molecule?
A: 5.5 g/dL

Q: And the gamma-GTP (6 h)?
A: 2 IU/L

Q: What about the TERMINAL_BW (9 h) of the same molecule?
A: 210.2 g

Q: What about the APTT (9 h) of the same molecule?
A: 16.6 s

Q: And the Bas (9 h)?
A: 0%

Q: And the Eos (9 h)?
A: 1.2%

Q: And the Fbg (9 h)?
A: 221.4 mg/dL

Q: And the Hb (9 h)?
A: 13.4 g/dL

Q: What about the Ht (9 h) of the same molecule?
A: 40.6%

Q: What about the Lym (9 h) of the same molecule?
A: 73.2%

Q: What about the MCH (9 h) of the same molecule?
A: 21.6 pg

Q: What about the MCHC (9 h) of the same molecule?
A: 33.1%

Q: What about the MCV (9 h) of the same molecule?
A: 65.4 fL

Q: And the Mono (9 h)?
A: 8.4%

Q: What about the Neu (9 h) of the same molecule?
A: 17.2%

Q: And the PT (9 h)?
A: 12.2 s

Q: What about the Plat (9 h) of the same molecule?
A: 111.7 x10_4/uL

Q: What about the RBC (9 h) of the same molecule?
A: 620.6 x10_4/ul

Q: And the Ret (9 h)?
A: 7.6%

Q: And the WBC (9 h)?
A: 117.1 x10_2/uL

Q: And the KIDNEY_L (9 h)?
A: 0.9 g

Q: And the KIDNEY_R (9 h)?
A: 1 g

Q: And the KIDNEY_TOTAL (9 h)?
A: 1.9 g

Q: What about the LIVER (9 h) of the same molecule?
A: 8.7 g

Q: What about the ALP (9 h) of the same molecule?
A: 724 IU/L

Q: And the ALT (9 h)?
A: 30.6 IU/L

Q: What about the AST (9 h) of the same molecule?
A: 67.4 IU/L

Q: And the BUN (9 h)?
A: 12.2 mg/dL

Q: And the CRE (9 h)?
A: 0.5 mg/dL

Q: And the Ca (9 h)?
A: 11.1 mg/dL

Q: And the DBIL (9 h)?
A: 0.034 mg/dL

Q: And the GLC (9 h)?
A: 197.6 mg/dL

Q: What about the IP (9 h) of the same molecule?
A: 10.7 mg/dL

Q: What about the K (9 h) of the same molecule?
A: 4.9 meq/L

Q: What about the LDH (9 h) of the same molecule?
A: 63 IU/L

Q: What about the Na (9 h) of the same molecule?
A: 139.6 meq/L

Q: What about the PL (9 h) of the same molecule?
A: 147.4 mg/dL

Q: And the RALB (9 h)?
A: 4 g/dL

Q: And the TBIL (9 h)?
A: 0.3 mg/dL

Q: And the TC (9 h)?
A: 87.6 mg/dL

Q: What about the TG (9 h) of the same molecule?
A: 35.8 mg/dL

Q: And the TP (9 h)?
A: 5.6 g/dL

Q: And the gamma-GTP (9 h)?
A: 1.2 IU/L

Q: What about the TERMINAL_BW (24 h) of the same molecule?
A: 232.2 g

Q: What about the APTT (24 h) of the same molecule?
A: 15.8 s

Q: What about the Bas (24 h) of the same molecule?
A: 0%

Q: And the Eos (24 h)?
A: 0.8%

Q: What about the Fbg (24 h) of the same molecule?
A: 225 mg/dL

Q: What about the Hb (24 h) of the same molecule?
A: 13.2 g/dL

Q: What about the Ht (24 h) of the same molecule?
A: 38.9%

Q: And the Lym (24 h)?
A: 73%

Q: What about the MCH (24 h) of the same molecule?
A: 22 pg

Q: What about the MCHC (24 h) of the same molecule?
A: 33.9%

Q: What about the MCV (24 h) of the same molecule?
A: 64.9 fL

Q: And the Mono (24 h)?
A: 9.4%

Q: What about the Neu (24 h) of the same molecule?
A: 16.8%

Q: And the PT (24 h)?
A: 12.2 s

Q: And the Plat (24 h)?
A: 107.1 x10_4/uL

Q: And the RBC (24 h)?
A: 600.2 x10_4/ul

Q: What about the Ret (24 h) of the same molecule?
A: 8.3%

Q: And the WBC (24 h)?
A: 127.4 x10_2/uL

Q: And the KIDNEY_L (24 h)?
A: 1 g

Q: And the KIDNEY_R (24 h)?
A: 1 g

Q: What about the KIDNEY_TOTAL (24 h) of the same molecule?
A: 2 g

Q: And the LIVER (24 h)?
A: 11.4 g

Q: And the ALP (24 h)?
A: 895 IU/L

Q: And the ALT (24 h)?
A: 36 IU/L

Q: What about the AST (24 h) of the same molecule?
A: 65.2 IU/L

Q: What about the BUN (24 h) of the same molecule?
A: 18.4 mg/dL

Q: What about the CRE (24 h) of the same molecule?
A: 0.5 mg/dL

Q: What about the Ca (24 h) of the same molecule?
A: 11 mg/dL

Q: And the DBIL (24 h)?
A: 0.016 mg/dL

Q: And the GLC (24 h)?
A: 193.4 mg/dL

Q: What about the IP (24 h) of the same molecule?
A: 8.1 mg/dL

Q: What about the K (24 h) of the same molecule?
A: 5.1 meq/L

Q: What about the LDH (24 h) of the same molecule?
A: 73 IU/L

Q: What about the Na (24 h) of the same molecule?
A: 138.4 meq/L

Q: What about the PL (24 h) of the same molecule?
A: 150.8 mg/dL

Q: And the RALB (24 h)?
A: 3.9 g/dL

Q: What about the TBIL (24 h) of the same molecule?
A: 0.3 mg/dL

Q: What about the TC (24 h) of the same molecule?
A: 81.6 mg/dL

Q: And the TG (24 h)?
A: 87.8 mg/dL

Q: And the TP (24 h)?
A: 5.7 g/dL
